Key:
[1] = target: T1, CtSpartinLSD (Thermochaetoides thermophila, UniProt G0S883); assay: native gel comigration; format: binding; details: on ice, 2 h; labelled compound; also transferred between liposomes
T1 sequence (G0S883 186-480): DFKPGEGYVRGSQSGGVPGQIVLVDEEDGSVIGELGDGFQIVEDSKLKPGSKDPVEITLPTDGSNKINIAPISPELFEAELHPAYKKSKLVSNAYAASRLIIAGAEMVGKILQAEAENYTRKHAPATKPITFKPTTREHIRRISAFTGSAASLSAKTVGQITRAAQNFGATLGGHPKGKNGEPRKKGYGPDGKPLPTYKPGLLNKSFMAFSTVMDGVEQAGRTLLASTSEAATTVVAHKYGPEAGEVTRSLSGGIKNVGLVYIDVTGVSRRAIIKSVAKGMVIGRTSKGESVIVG

[2] = target: T2, CeSpartin (Caenorhabditis elegans, UniProt O44735); assay: FRET-based lipid transfer between tethered liposomes; format: biochemical; details: 30 C, pH 8.0, labelled compound
T2 sequence (O44735 1-476): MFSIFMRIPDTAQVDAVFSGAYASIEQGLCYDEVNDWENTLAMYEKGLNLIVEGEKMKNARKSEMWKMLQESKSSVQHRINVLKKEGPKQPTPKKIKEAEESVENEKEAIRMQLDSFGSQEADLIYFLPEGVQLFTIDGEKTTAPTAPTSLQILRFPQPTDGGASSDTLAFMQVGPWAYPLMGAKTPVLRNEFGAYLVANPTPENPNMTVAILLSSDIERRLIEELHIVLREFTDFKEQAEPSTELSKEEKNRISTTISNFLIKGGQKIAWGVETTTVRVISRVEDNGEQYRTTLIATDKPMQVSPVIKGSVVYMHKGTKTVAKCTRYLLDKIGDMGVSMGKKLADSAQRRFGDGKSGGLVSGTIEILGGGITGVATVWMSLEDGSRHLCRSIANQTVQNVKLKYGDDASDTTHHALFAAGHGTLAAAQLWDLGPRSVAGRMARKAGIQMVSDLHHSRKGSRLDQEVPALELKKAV

[3] = target: T3, CtSpartinL (Thermochaetoides thermophila, UniProt G0S883); assay: as above; format: biochemical; details: 30 C, pH 8.0; labelled compound
T3 sequence (G0S883 7-480): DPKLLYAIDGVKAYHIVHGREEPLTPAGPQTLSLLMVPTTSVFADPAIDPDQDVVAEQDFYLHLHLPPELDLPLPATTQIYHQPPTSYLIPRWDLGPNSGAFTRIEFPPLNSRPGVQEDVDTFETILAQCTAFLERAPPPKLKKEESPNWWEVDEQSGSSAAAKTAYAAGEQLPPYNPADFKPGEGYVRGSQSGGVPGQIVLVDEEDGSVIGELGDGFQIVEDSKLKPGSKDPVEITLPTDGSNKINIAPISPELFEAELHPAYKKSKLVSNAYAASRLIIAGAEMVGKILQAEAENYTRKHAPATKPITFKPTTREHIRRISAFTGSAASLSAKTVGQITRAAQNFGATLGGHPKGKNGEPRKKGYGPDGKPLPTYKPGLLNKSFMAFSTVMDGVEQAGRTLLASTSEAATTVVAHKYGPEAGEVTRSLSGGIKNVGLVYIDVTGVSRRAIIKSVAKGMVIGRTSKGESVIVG

[4] = target: C. elegans spartin (CeSpartin) (C. elegans); assay: native gel or EMSA
[5] = target: spartin-like protein from Chaetomium thermophilum (CtSpartinL), residues 7-480 (Chaetomium thermophilum); assay: native gel or EMSA
[6] = target: the molecule itself; assay: native gel or EMSA

Molecule: CCCCCCCCCCCCCCCC(=O)OC[C@H](COP(=O)([O-])OCC[N+](C)(C)C)OC(=O)CCCCCNc1ccc([N+](=O)[O-])c2nonc12 [NBD-PC, 1-palmitoyl-2-{6-[(7-nitro-2-1,3-benzoxadiazol-4-yl)amino]hexanoyl}-sn-glycero-3-phosphocholine]
- native gel comigration [1]: senescence domain fragment comigrates with NBD-PC on native gels
- FRET-based lipid transfer between tethered liposomes [2]: we observed fluorescence increases consistent with NBD-PC or NBD-PE transfer
- FRET-based lipid transfer between tethered liposomes [3]: addition of CeSpartin, HsSpartin or CtSpartinL to the liposomes all result in increased NBD fluorescence

Molecule: CCCCCCCCCCCCCCCC(=O)OC[C@H](COP(=O)(O)OCCN)OC(=O)CCCCCNc1ccc([N+](=O)[O-])c2nonc12 [NBD-PE, 1-palmitoyl-2-{6-[(7-nitro-2-1,3-benzoxadiazol-4-yl)amino]hexanoyl}-sn-glycero-3-phosphoethanolamine]
- FRET-based lipid transfer between tethered liposomes ([2]; less robust than NBD-PC): we observed fluorescence increases consistent with NBD-PC or NBD-PE transfer

Molecule: C. elegans spartin (CeSpartin) (natural protein)
- stoichiometry N [4]: 3

Molecule: spartin-like protein from Chaetomium thermophilum (CtSpartinL), residues 7-480 (natural protein)
- stoichiometry N [5]: 3

B1: human spartin (HsSpartin) (natural protein, UniProt Q8N0X7 1-666, looked up)
chain: MEQEPQNGEPAEIKIIREAYKKAFLFVNKGLNTDELGQKEEAKNYYKQGIGHLLRGISISSKESEHTGPGWESARQMQQKMKETLQNVRTRLEILEKGLATSLQNDLQEVPKLYPEFPPKDMCEKLPEPQSFSSAPQHAEVNGNTSTPSAGAVAAPASLSLPSQSCPAEAPPAYTPQAAEGHYTVSYGTDSGEFSSVGEEFYRNHSQPPPLETLGLDADELILIPNGVQIFFVNPAGEVSAPSYPGYLRIVRFLDNSLDTVLNRPPGFLQVCDWLYPLVPDRSPVLKCTAGAYMFPDTMLQAAGCFVGVVLSSELPEDDRELFEDLLRQMSDLRLQANWNRAEEENEFQIPGRTRPSSDQLKEASGTDVKQLDQGNKDVRHKGKRGKRAKDTSSEEVNLSHIVPCEPVPEEKPKELPEWSEKVAHNILSGASWVSWGLVKGAEITGKAIQKGASKLRERIQPEEKPVEVSPAVTKGLYIAKQATGGAAKVSQFLVDGVCTVANCVGKELAPHVKKHGSKLVPESLKKDKDGKSPLDGAMVVAASSVQGFSTVWQGLECAAKCIVNNVSAETVQTVRYKYGYNAGEATHHAVDSAVNVGVTAYNINNIGIKAMVKKTATQTGHTLLEDYQIVDNSQRENQEGAANVNVRGEKDEQTKEVKEAKKKDK
- stoichiometry N [6]: ~3
